Data from patent US11453904B2, “Evaluation method for permeability of porous membrane, cell evaluation method, and drug evaluation method” (FUJIFILM CORPORATION, priority 2019, dated 2022).

Test system: endothelial cells 301 and the smooth muscle cells 302
Test: drug evaluation method: toxicity of a drug to cells cultured on the porous membrane of a microfluidic device, read by flow rate in the lower micro flow channel
Format: cell-based
Conditions: cytochalasin 50 μg/ml contained in liquid A and liquid B; concluded from the increased flow-rate slope (decreased barrier property)
Source text: The drug evaluation method according to the present embodiment includes culturing cells on the surface of the porous membrane 30 of the microfluidic device 110 (a step S41). […] This makes it possible to form a structure that simulates the blood vessel (the artery) in the microfluidic device 110. It is noted that the cells to be evaluated may be cultured only on one surface of the porous membrane 30.
The drug evaluation method according to the present embodiment includes exposing cells cultured on the surface of the porous membrane 30 to a drug to be evaluated (a step S42). That is, a liquid containing a drug to be evaluated is supplied to each of the upper micro flow channel 18 and the lower micro flow channel 24.
The drug evaluation method according to the present embodiment includes acquiring the evaluation indicator of the permeability of the porous membrane 30 according to any one of the first to third embodiments described above as an indicator of toxicity of the drug to be evaluated to the cells. That is, the change that occurs in the liquid accommodated in the lower micro flow channel 24 is acquired as an indicator of toxicity of the drug to be evaluated to the cells, in a case where the liquid is supplied to the upper micro flow channel 18 while the supply pressure is being changed (a step S43). […]

## cytochalasin
  toxicity to the endothelial cells 301 and the smooth muscle cells 302: has toxicity
